From patent US20260248165A1, “A SWEETENER OR SWEETNESS ENHANCER COMPOSITION” (Analyticon Discovery – Zweigniederlassung der BRAIN Biotech …, priority 2022, published 2026)

How the values were obtained:
[1] = Organoleptic test in combination with Rebaudioside M against Rebaudioside M (Rebaudioside M enhancement), 2-AFC; assay type: in vivo; design: key: 3: sweeter than the control solution; 2: sweetness comparable with the control solution; 1: less sweet than the control solution but still sweet; 0: no intrinsic sweetness; conditions: 12 to 15 panelists; for Sweet taste enhancement, control solution Reb M 150 ppm: compound in 150 ppm Rebaudioside M solution vs Reb M 150 ppm; for Sweet taste enhancement, control solution Reb M 170 ppm: compound in 150 ppm Rebaudioside M solution vs Reb M 170 ppm; for Sweet taste enhancement, control solution Reb M 190 ppm: compound in 150 ppm Rebaudioside M solution vs Reb M 190 ppm; for Sweet taste enhancement, control solution Reb M 210 ppm: compound in 150 ppm Rebaudioside M solution vs Reb M 210 ppm
Method: The isolated pure compounds were dissolved in non-carbonated mineral water (“Evian”) in a concentration of 50 ppm (0.05 mg/ml), 25 ppm (0.025 mg/ml), […] (0.0125 mg/ml) and […]. The sweet taste of each sample was detected by a panel of 3-4 panelists to detect the sweetness perception level. The highest concentration below the sweetness perception level was used for the evaluation of the sweet taste enhancement of Rebaudioside M.
A solution of the isolated compound in a concentration below the sweetness perception level was dissolved in 150 ppm Rebaudioside M solution. […] E2164-16_Standard Test Method for Directional Difference Test). The panelists were trained to differentiate between the sweetness of a 150 ppm, 170 ppm, 190 ppm, and a 210 ppm Rebaudioside M solution.

[2] = Organoleptic test in combination with sucrose against sucrose (sucrose enhancement), 2-AFC; assay type: in vivo; design: key: 3: sweeter than the control solution; 2: sweetness comparable with the control solution; 1: less sweet than the control solution but still sweet; 0: no intrinsic sweetness; conditions: 12 to 15 panelists; for Sweet taste enhancement of sucrose, control solution Sucrose 6%: compound 50 ppm in 6% sucrose solution vs 6% sucrose; for Sweet taste enhancement of sucrose, control solution Sucrose 7%: compound 50 ppm in 6% sucrose solution vs 7% sucrose; for Sweet taste enhancement of sucrose, control solution Sucrose 8%: compound 50 ppm in 6% sucrose solution vs 8% sucrose; for Sweet taste enhancement of sucrose, control solution Sucrose 9%: compound 50 ppm in 6% sucrose solution vs 9% sucrose
Method: The isolated pure compounds were dissolved in non-carbonated mineral water (“Evian”) in a concentration of 50 ppm (0.05 mg/ml), 25 ppm (0.025 mg/ml), […] (0.0125 mg/ml) and […] (0.00625 mg/ml). The sweet taste of each sample was detected by a panel of 4 panelists to detect the sweetness perception level. The highest concentration below the sweetness perception level was used for the evaluation of the sweet taste enhancement of sucrose.
A solution of the isolated compound in a concentration below the sweetness perception level was dissolved in 6% sucrose solution. The sweet taste of this sample was compared to the sweet taste of a 6% sucrose solution by a panel of 12 to 15 panelists in a two-alternative forced-choice test (2-AFC. E2164-16_Standard Test Method for Directional Difference Test). The panelists were trained to differentiate between the sweetness of a 6%, 7%, 8%, and 9% sucrose solution. The sweetness of the solution of the enhancer in 6% sucrose was compared with sucrose solutions in concentrations of 6%, 7%, 8%, and 9%.

[3] = Organoleptic comparison of Compound 1 with Millettiasaponin A; assay type: in vivo; conditions: both at 200 ppm and 50 ppm in mineral water; 4 panelists
Method: Milettiasaponin A was published as sweet taste principle of an extract prepared from Derris eriocarpa (150× sweeter than sucrose) [J. Agric. Food Chem. 2017, 65, 2357-2363]. Milletiasaponin A has an additional hydroxyl group at C-24 compared to compound 1. Both compounds were dissolved in non-carbonated mineral water (“Evian”) in a concentration of 0.2 mg/ml (200 ppm) and 0.05 mg/ml (50 ppm). The sweet taste of both samples was compared by a panel of 4 panelists.

[4] = Organoleptic test of the compounds against sucrose (intrinsic sweetness); assay type: in vivo; design: key: 3: sweeter than the control solution; 2: sweetness comparable with the control solution; 1: less sweet than the control solution but still sweet; 0: no intrinsic sweetness; conditions: 3-4 panelists; for Sweetness 50 ppm: compound 50 ppm in mineral water vs sucrose 20 g/l; for Sweetness 200 ppm: compound 200 ppm in mineral water vs sucrose 20 g/l
Method: The isolated pure compounds were dissolved in non-carbonated mineral water (“Evian”) in a concentration of 0.2 mg/ml (200 ppm) and 0.05 mg/ml (50 ppm). The sweet taste of each sample was compared by a panel of 3-4 panelists with a solution of sucrose in a concentration of 20 g/l.

[5] = J. Agric. Food Chem. 2017, 65, 2357-2363; cited from earlier work
[6] = 5% sucrose in water; concentration of 100 μm; cited from earlier work

Row | SMILES | Sweet taste enhancement, control solution Reb M 150 ppm [1] | Sweet taste enhancement, control solution Reb M 170 ppm [1] | Sweet taste enhancement, control solution Reb M 190 ppm [1] | Sweet taste enhancement, control solution Reb M 210 ppm [1] | Sweet taste enhancement of sucrose, control solution Sucrose 6% [2] | Sweet taste enhancement of sucrose, control solution Sucrose 7% [2] | Sweet taste enhancement of sucrose, control solution Sucrose 8% [2] | Sweet taste enhancement of sucrose, control solution Sucrose 9% [2] | Sweet taste compared with Milletiasaponin A [3] | Sweetness 50 ppm [4] | Sweetness 200 ppm [4] | Sweetness relative to sucrose [5] | Enhancement of the sweetness of sucrose [6]
1 | CC(=O)O[C@@H]1C[C@](C)(C(=O)O)C[C@H]2C3=CCC4[C@@]5(C)CC[C@H](O[C@@H]6O[C@H](C(=O)O)[C@@H](O)[C@H](O)[C@H]6O[C@@H]6O[C@H](CO)[C@H](O)[C@H](O)[C@H]6O[C@@H]6O[C@@H](C)[C@H](O)[C@@H](O)[C@H]6O)C(C)(C)C5CC[C@@]4(C)[C@]3(C)CC[C@@]12C (stereo partly shown) [Compound 1, 24-Desoxy- Millettiasaponin A] | 3 | 3 | 2 | 2 | 3 | 3 | 3 | 3 | sweeter with less aftertaste than Milletiasaponin A | 3 | 3 |  | 
2 | CC1=C(C(=O)O[C@@H]2O[C@H](CO[C@@H]3OC[C@@H](O)[C@H](O)[C@H]3O)[C@@H](O)[C@H](O)[C@H]2O)C(C)(C)CCC1 [Compound 2, Jasminoside M] | 3 | 3 | 2 | 1 | 3 | 3 | 3 | 2 |  | 0 | 0 |  | 
3 | COc1cc([C@H]2c3cc(O)c(OC)cc3C[C@@H](CO[C@@H]3O[C@H](CO)[C@@H](O)[C@H](O)[C@H]3O)[C@@H]2CO)ccc1O [Compound 3, Isolariciresinol 9-glucoside] | 3 | 3 | 2 | 1 | 3 | 3 | 3 | 2 |  | 0 | 0 |  | 
4 | CCCCCc1cc2cc(O)cc(Oc3c(O)cc(O)cc3CCCCC)c2c(=O)o1 [Compound 4, Physodone] | 3 | 3 | 3 | 1 | 3 | 3 | 3 | 2 |  | 0 | 0 |  | 
5 | CC(=O)O[C@@H]1C[C@](C)(C(=O)O)C[C@H]2C3=CCC4[C@@]5(C)CC[C@H](O[C@@H]6O[C@H](C(=O)O)[C@@H](O)[C@H](O)[C@H]6O[C@@H]6O[C@H](CO)[C@H](O)[C@H](O)[C@H]6O[C@@H]6O[C@@H](C)[C@H](O)[C@@H](O)[C@H]6O)[C@](C)(CO)C5CC[C@@]4(C)[C@]3(C)CC[C@@]12C (stereo partly shown) [Milettiasaponin A] |  |  |  |  |  |  |  |  |  |  |  | 150 × sweeter than sucrose | 
6 | COc1ccc([C@@H]2CC(=O)c3c(O)cc(O)cc3O2)cc1O [hesperetin] |  |  |  |  |  |  |  |  |  |  |  |  | 41%
